Test results: PubChem BioAssay AID2060486 (Molecular Pharmacology Branch, DTP, NCI, 2025)

Test system: IGROV1 complex spheroids (HUVEC, MSC), viability % test/control
Assay: Anticancer human tumor IGROV1 cell line growth inhibition [GQUAD];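 also: spheroids exposed to compounds for 7 days before readout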;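 as to viability, T/C: 100% = DMSO vehicle control viability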
Conditions: for IC50: curve of first compound; for viability, T/C: stronger effect = lower value
Summary of the method: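 Tumor cells were grown as complex spheroids with HUVEC endothelial cells and mesenchymal stem cells as stroma. G-quadruplex stabilizers were combined with targeted agents over half-log dilutions from near the clinical Cmax, or from 10 microM.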

[1] = second compound 0.0316 µM, first compound 0.0316 µM
[2] = second compound 0.0316 µM, first compound 0.1 µM
[3] = second compound 0.0316 µM, first compound 0.316 µM
[4] = second compound 0.0316 µM, first compound 1 µM
[5] = second compound 0.0316 µM, first compound 3.16 µM
[6] = second compound 0.0316 µM, first compound 10 µM
[7] = second compound 0.1 µM, first compound 0.0316 µM
[8] = second compound 0.1 µM, first compound 0.1 µM
[9] = second compound 0.1 µM, first compound 0.316 µM
[10] = second compound 0.1 µM, first compound 1 µM
[11] = second compound 0.1 µM, first compound 3.16 µM
[12] = second compound 0.1 µM, first compound 10 µM
[13] = second compound 0.316 µM, first compound 0.0316 µM
[14] = second compound 0.316 µM, first compound 0.1 µM
[15] = second compound 0.316 µM, first compound 0.316 µM
[16] = second compound 0.316 µM, first compound 1 µM
[17] = second compound 0.316 µM, first compound 3.16 µM
[18] = second compound 0.316 µM, first compound 10 µM
[19] = second compound 1 µM, first compound 0.0316 µM
[20] = second compound 1 µM, first compound 0.1 µM
[21] = second compound 1 µM, first compound 0.316 µM
[22] = second compound 1 µM, first compound 1 µM
[23] = second compound 1 µM, first compound 3.16 µM
[24] = second compound 1 µM, first compound 10 µM
[25] = second compound 3.16 µM, first compound 0.0316 µM
[26] = second compound 3.16 µM, first compound 0.1 µM
[27] = second compound 3.16 µM, first compound 0.316 µM
[28] = second compound 3.16 µM, first compound 1 µM
[29] = second compound 3.16 µM, first compound 3.16 µM
[30] = second compound 3.16 µM, first compound 10 µM
[31] = second compound 10 µM, first compound 0.0316 µM
[32] = second compound 10 µM, first compound 0.1 µM
[33] = second compound 10 µM, first compound 0.316 µM
[34] = second compound 10 µM, first compound 1 µM
[35] = second compound 10 µM, first compound 3.16 µM
[36] = second compound 10 µM, first compound 10 µM

CC(C)n1c(=O)n(C)c2cnc3cc(F)c(-c4ccc(OCCCN5CCCCC5)nc4)cc3c21 + CN(C)c1ccc(Nc2c3ccc(NC(=O)CCN4CCCC4)cc3nc3cc(NC(=O)CCN4CCCC4)ccc23)cc1
IC50 (second compound 0.0316 µM): 3.96 µM | IC50 (second compound 0.1 µM): 3.78 µM | IC50 (second compound 0.316 µM): 4.03 µM | IC50 (second compound 1 µM): 1.5 µM | IC50 (second compound 3.16 µM): < 0.0316 µM | IC50 (second compound 10 µM): < 0.0316 µM | viability, T/C [1]: 91.8% | viability, T/C [2]: 70.1% | viability, T/C [3]: 90.8% | viability, T/C [4]: 72.2% | viability, T/C [5]: 59.2% | viability, T/C [6]: 15.5% | viability, T/C [7]: 93.3% | viability, T/C [8]: 59.2% | viability, T/C [9]: 87.3% | viability, T/C [10]: 72% | viability, T/C [11]: 55.2% | viability, T/C [12]: 18% | viability, T/C [13]: 86.1% | viability, T/C [14]: 69.6% | viability, T/C [15]: 83.4% | viability, T/C [16]: 74.8% | viability, T/C [17]: 58.9% | viability, T/C [18]: 16.7% | viability, T/C [19]: 54.6% | viability, T/C [20]: 53.1% | viability, T/C [21]: 58.9% | viability, T/C [22]: 55.6% | viability, T/C [23]: 40% | viability, T/C [24]: 13% | viability, T/C [25]: 49.7% | viability, T/C [26]: 39.4% | viability, T/C [27]: 27% | viability, T/C [28]: 21.9% | viability, T/C [29]: 19.8% | viability, T/C [30]: 10.7% | viability, T/C [31]: 18.3% | viability, T/C [32]: 18.8% | viability, T/C [33]: 11.4% | viability, T/C [34]: 10.5% | viability, T/C [35]: 7.56% | viability, T/C [36]: 3.54%

CC1COCCN1c1cc(C2(O)CC3CCC(C2)O3)c2cnn(-c3ccn[nH]3)c2n1 (stereo not drawn) + CN(C)c1ccc(Nc2c3ccc(NC(=O)CCN4CCCC4)cc3nc3cc(NC(=O)CCN4CCCC4)ccc23)cc1
IC50 (second compound 0.0316 µM): 0.0368 µM | IC50 (second compound 0.1 µM): < 0.0316 µM | IC50 (second compound 0.316 µM): < 0.0316 µM | IC50 (second compound 1 µM): < 0.0316 µM | IC50 (second compound 3.16 µM): < 0.0316 µM | IC50 (second compound 10 µM): < 0.0316 µM | viability, T/C [1]: 54.8% | viability, T/C [2]: 20% | viability, T/C [3]: 7.64% | viability, T/C [4]: 5.68% | viability, T/C [5]: 2.88% | viability, T/C [6]: 1.63% | viability, T/C [7]: 45% | viability, T/C [8]: 22.7% | viability, T/C [9]: 9.08% | viability, T/C [10]: 5.11% | viability, T/C [11]: 3.48% | viability, T/C [12]: 1.19% | viability, T/C [13]: 45.8% | viability, T/C [14]: 19% | viability, T/C [15]: 9.25% | viability, T/C [16]: 4.51% | viability, T/C [17]: 4.65% | viability, T/C [18]: 1.93% | viability, T/C [19]: 42.6% | viability, T/C [20]: 17.5% | viability, T/C [21]: 8.86% | viability, T/C [22]: 5.16% | viability, T/C [23]: 4.18% | viability, T/C [24]: 1.58% | viability, T/C [25]: 38.7% | viability, T/C [26]: 13.4% | viability, T/C [27]: 8.17% | viability, T/C [28]: 4.73% | viability, T/C [29]: 4% | viability, T/C [30]: 1.78% | viability, T/C [31]: 17% | viability, T/C [32]: 10.2% | viability, T/C [33]: 5.93% | viability, T/C [34]: 4.42% | viability, T/C [35]: 3.55% | viability, T/C [36]: 1.05%

CC1COCCN1c1cc(C2(S(C)(=N)=O)CC2)nc(-c2ccnc3[nH]ccc23)n1 (stereo not drawn) + CN(C)c1ccc(Nc2c3ccc(NC(=O)CCN4CCCC4)cc3nc3cc(NC(=O)CCN4CCCC4)ccc23)cc1
IC50 (second compound 0.0316 µM): 1.02 µM | IC50 (second compound 0.1 µM): 0.949 µM | IC50 (second compound 0.316 µM): 0.979 µM | IC50 (second compound 1 µM): 1.02 µM | IC50 (second compound 3.16 µM): 1.03 µM | IC50 (second compound 10 µM): 0.141 µM | viability, T/C [1]: 83.5% | viability, T/C [2]: 76.6% | viability, T/C [3]: 86.7% | viability, T/C [4]: 49.9% | viability, T/C [5]: 16.1% | viability, T/C [6]: 7.65% | viability, T/C [7]: 99.2% | viability, T/C [8]: 89.5% | viability, T/C [9]: 76.3% | viability, T/C [10]: 52.7% | viability, T/C [11]: 14% | viability, T/C [12]: 5.88% | viability, T/C [13]: 83.7% | viability, T/C [14]: 103% | viability, T/C [15]: 76.8% | viability, T/C [16]: 51.4% | viability, T/C [17]: 13.7% | viability, T/C [18]: 6.28% | viability, T/C [19]: 72.4% | viability, T/C [20]: 93% | viability, T/C [21]: 69.8% | viability, T/C [22]: 52.5% | viability, T/C [23]: 12.1% | viability, T/C [24]: 6.36% | viability, T/C [25]: 65.5% | viability, T/C [26]: 84% | viability, T/C [27]: 79.7% | viability, T/C [28]: 49.4% | viability, T/C [29]: 16.5% | viability, T/C [30]: 6.55% | viability, T/C [31]: 60.6% | viability, T/C [32]: 54.4% | viability, T/C [33]: 40.4% | viability, T/C [34]: 30.5% | viability, T/C [35]: 15.2% | viability, T/C [36]: 7.14%

O=C(c1cc(Cc2n[nH]c(=O)c3ccccc23)ccc1F)N1CCN(C(=O)C2CC2)CC1 + CN(C)c1ccc(Nc2c3ccc(NC(=O)CCN4CCCC4)cc3nc3cc(NC(=O)CCN4CCCC4)ccc23)cc1
IC50 (second compound 0.0316 µM): 3.87 µM | IC50 (second compound 0.1 µM): 4.57 µM | IC50 (second compound 0.316 µM): 3.73 µM | IC50 (second compound 1 µM): 4.88 µM | IC50 (second compound 3.16 µM): 2.36 µM | IC50 (second compound 10 µM): < 0.0316 µM | viability, T/C [1]: 87.2% | viability, T/C [2]: 81.6% | viability, T/C [3]: 67.3% | viability, T/C [4]: 67.9% | viability, T/C [5]: 61.6% | viability, T/C [6]: 22.1% | viability, T/C [7]: 92.9% | viability, T/C [8]: 87.2% | viability, T/C [9]: 83.9% | viability, T/C [10]: 74.8% | viability, T/C [11]: 67.6% | viability, T/C [12]: 20.3% | viability, T/C [13]: 66.1% | viability, T/C [14]: 87.3% | viability, T/C [15]: 78.4% | viability, T/C [16]: 73.3% | viability, T/C [17]: 54.3% | viability, T/C [18]: 24.4% | viability, T/C [19]: 62.2% | viability, T/C [20]: 90.4% | viability, T/C [21]: 86.9% | viability, T/C [22]: 71.7% | viability, T/C [23]: 66.1% | viability, T/C [24]: 24.6% | viability, T/C [25]: 58.3% | viability, T/C [26]: 87.8% | viability, T/C [27]: 78.6% | viability, T/C [28]: 51.9% | viability, T/C [29]: 49.9% | viability, T/C [30]: 20.7% | viability, T/C [31]: 50.9% | viability, T/C [32]: 44.6% | viability, T/C [33]: 38.4% | viability, T/C [34]: 37.6% | viability, T/C [35]: 30.1% | viability, T/C [36]: 11.8%
